Experimental data reported in PubChem BioAssay (NCI).
Several values for one entry are separate records, joined by “and”; a condition that tells them apart may be missing. Identical values can stand only once.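 Grown in 96-well plates, cells were treated for 48 hours with each compound at five concentrations. Insufficient inhibition: endpoint recorded as highest concentration tested. Abbreviation: GI50, concentration required for 50% inhibition of growth. Definition used: TGI = concentration required for complete inhibition of growth.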

Tests used:
Assay in all cases: DTP human tumour cell line panel, 48 h
[1] = test system: OVCAR-8 ovarian
[2] = test system: NCI-H23 lung
[3] = test system: UO-31 renal
[4] = test system: OVCAR-4 ovarian
[5] = test system: HCT-116 colon
[6] = test system: CCRF-CEM leukemia
[7] = test system: DMS 114 small cell lung
[8] = test system: SK-OV-3 ovarian
[9] = test system: LXFL 529 NSCLC
[10] = test system: SNB-19 CNS
[11] = test system: M14 melanoma
[12] = test system: DMS 273 small cell lung
[13] = test system: OVCAR-5 ovarian
[14] = test system: UACC-257 melanoma
[15] = test system: SN12C renal
[16] = test system: RXF-631 renal
[17] = test system: KM12 colon
[18] = test system: HCC-2998 colon
[19] = test system: U251 CNS
[20] = test system: NCI-H460 lung
[21] = test system: SF-268 CNS
[22] = test system: RPMI-8226 leukemia
[23] = test system: ACHN renal
[24] = test system: LOX IMVI melanoma
[25] = test system: HCT-15 colon
[26] = test system: NCI-H522 lung
[27] = test system: CAKI-1 renal
[28] = test system: SW-620 colon
[29] = test system: A498 renal
[30] = test system: SF-539 CNS
[31] = test system: MALME-3M melanoma
[32] = test system: MOLT-4 leukemia
[33] = test system: SR leukemia
[34] = test system: SNB-78 CNS
[35] = test system: SNB-75 CNS
[36] = test system: SK-MEL-28 melanoma
[37] = test system: UACC-62 melanoma
[38] = test system: TK-10 renal
[39] = test system: NCI-H226 lung
[40] = test system: A549 NSCLC
[41] = test system: 786-0 renal
[42] = test system: HOP-62 NSCLC
[43] = test system: HT29 colon
[44] = test system: SK-MEL-2 melanoma
[45] = test system: RXF 393 renal
[46] = test system: SF-295 CNS
[47] = test system: M19-MEL melanoma
[48] = test system: OVCAR-3 ovarian
[49] = test system: SK-MEL-5 melanoma
[50] = test system: DLD-1 colon
[51] = test system: K-562 leukemia
[52] = test system: PC-3 prostate
[53] = test system: HS 578T breast
[54] = test system: MDA-N
[55] = test system: HOP-92 NSCLC
[56] = test system: BT-549 breast
[57] = test system: EKVX NSCLC
[58] = test system: COLO 205 colon
[59] = test system: HL-60(TB) leukemia
[60] = test system: DU-145 prostate
[61] = test system: MDA-MB-435
[62] = test system: IGROV1 ovarian
[63] = test system: NCI/ADR-RES ovarian
[64] = test system: MCF7 breast
[65] = test system: T-47D breast
[66] = test system: MDA-MB-231 breast
[67] = test system: KM20L2 colon
[68] = test system: XF 498 CNS

CCN1c2ccccc2-c2c3c1cc(C)cc3c1ccccc1[n+]2CC
TGI [1]: 1.86 µM
TGI [2]: 4.08 µM
TGI [3]: 20.8 µM
TGI [4]: 5.57 µM
TGI [5]: 3.89 µM
TGI [6]: 2.83 µM
TGI [7]: 5.84 µM
TGI [8]: 5.68 µM
TGI [9]: 1.86 µM
TGI [10]: 3.16 µM
TGI [11]: 3.74 µM
TGI [12]: 1.58 µM
TGI [13]: 4.1 µM
TGI [14]: 1.65 µM
TGI [15]: 3.35 µM
TGI [16]: 43.4 µM
TGI [17]: 1.41 µM
TGI [18]: 2.11 µM
TGI [19]: 2.68 µM
TGI [20]: 2.73 µM
TGI [21]: 2.04 µM
TGI [22]: 2.92 µM
TGI [23]: 8.95 µM
TGI [24]: 1.89 µM
TGI [25]: 22.6 µM
TGI [26]: 3.52 µM
TGI [27]: 5.88 µM
TGI [28]: 6.63 µM
TGI [29]: 13.9 µM
TGI [30]: 2.51 µM
TGI [31]: 7.73 µM
TGI [32]: 3.41 µM
TGI [33]: 5.21 µM
TGI [34]: 12 µM
TGI [35]: 2.2 µM
TGI [36]: 2.46 µM
TGI [37]: 2.23 µM
TGI [38]: 9.66 µM
TGI [39]: 3.69 µM
TGI [40]: 13.8 µM
TGI [41]: 4.22 µM
TGI [42]: 5.15 µM
TGI [43]: 3.92 µM
TGI [44]: 4.29 µM
TGI [45]: 9.51 µM
TGI [46]: 3.21 µM
TGI [47]: 1.27 µM
TGI [48]: 2.39 µM
TGI [49]: 1.84 µM
TGI [50]: 17.8 µM
TGI [51]: 2.12 µM

CC(C)CC(C/C=C1/CC(CO)(COC(=O)C(C)(C)C)OC1=O)CC(C)C (centres undefined)
TGI [52]: 21.2 µM and 21.6 µM
TGI [1]: 32.9 µM and 38.7 µM
TGI [2]: 23.4 µM and 24.4 µM
TGI [53]: 24.2 µM and 14.7 µM
GI50 [3]: 10.8 µM and 3.51 µM
TGI [3]: 23 µM and 17.1 µM
TGI [4]: 34.9 µM and 30.6 µM
GI50 [54]: 0.2 µM and 0.849 µM
TGI [54]: 6.28 µM and 17.6 µM
TGI [5]: 29.5 µM and 30.9 µM
TGI [6]: 18.4 µM
TGI [8]: 39.7 µM
TGI [55]: 18.8 µM
TGI [10]: 23.4 µM and 18.5 µM
TGI [11]: 28 µM and 26.2 µM
TGI [13]: 24.5 µM
TGI [14]: 31.3 µM and 31 µM
TGI [15]: 22.2 µM
GI50 [17]: 13.7 µM and 14.8 µM
TGI [17]: 29.3 µM and 33.2 µM
TGI [18]: 5.37 µM and 6.13 µM
TGI [56]: 24.6 µM and 31 µM
GI50 [57]: 1.25 µM and 0.247 µM
TGI [57]: 10.7 µM and 7 µM
TGI [58]: 0.958 µM
GI50 [59]: 0.154 µM and 0.46 µM
TGI [59]: 16.9 µM and 16.7 µM
TGI [19]: 21.7 µM
TGI [20]: 17.8 µM and 5.69 µM
GI50 [60]: 20.2 µM
TGI [60]: 49.2 µM and 11.5 µM
TGI [21]: 26.4 µM and 25.4 µM
GI50 [22]: 17.1 µM and 3.85 µM
TGI [22]: 54.5 µM and 21.2 µM
GI50 [23]: 11.4 µM and 5.25 µM
TGI [23]: 24.1 µM and 21.3 µM
TGI [61]: 18.3 µM and 15 µM
GI50 [24]: 12.3 µM and 1.76 µM
TGI [24]: 27.9 µM and 21.9 µM
TGI [25]: 29.1 µM and 28.7 µM
TGI [26]: 30 µM and 27 µM
GI50 [27]: 7.62 µM and 1.19 µM
TGI [27]: 21.5 µM and 9.68 µM
TGI [28]: 19.4 µM and 22 µM
TGI [29]: 21.7 µM and 22.2 µM
TGI [30]: 21.3 µM
TGI [32]: 23.6 µM and > 41.6 µM
TGI [33]: 26.4 µM
TGI [62]: 30.6 µM and 24.4 µM
TGI [63]: 35.3 µM and 29.7 µM
TGI [35]: 23.6 µM and 26.6 µM
GI50 [36]: 28.7 µM
TGI [36]: 44.7 µM and 20.8 µM
TGI [37]: 28.8 µM and 24.1 µM
GI50 [38]: 1.58 µM and 0.543 µM
TGI [38]: 15.7 µM and 1.97 µM
GI50 [39]: 3.34 µM and 14.1 µM
TGI [39]: 17.6 µM and 28.5 µM
GI50 [40]: 1.07 µM and 0.515 µM
TGI [40]: 16.1 µM and 11.2 µM
GI50 [41]: 1.72 µM and 7.83 µM
TGI [41]: 17.7 µM and 26.3 µM
GI50 [42]: 10.8 µM and 1.92 µM
TGI [42]: 31.7 µM and 20.1 µM
GI50 [43]: 10.3 µM and 2.55 µM
TGI [43]: 23.2 µM and 18.6 µM
TGI [64]: 34.2 µM and 40.3 µM
TGI [44]: 30.3 µM and 24.3 µM
TGI [45]: 43.8 µM and 32.9 µM
GI50 [46]: 12.2 µM and 1.7 µM
TGI [46]: 36.7 µM and 12.7 µM
TGI [65]: 40.5 µM and 23.9 µM
GI50 [48]: 14.9 µM and 5.32 µM
TGI [48]: 36.6 µM and 18.8 µM
GI50 [49]: 0.462 µM and 0.0794 µM
TGI [49]: 18.8 µM and 4.95 µM
TGI [66]: 17.4 µM
TGI [51]: 27.4 µM and > 37.5 µM

COc1ccc(-c2oc(/C=N/NC(N)=S)c([N+](=O)[O-])c2-c2ccc(OC)c(OC)c2)cc1OC
TGI [1]: 81.8 µM
TGI [2]: > 100 µM
TGI [4]: 61.6 µM
TGI [5]: 41.1 µM
TGI [7]: 46.8 µM
TGI [8]: 69.3 µM
TGI [9]: 63.8 µM
TGI [55]: 79 µM
TGI [10]: 97 µM
TGI [11]: 67.9 µM
TGI [67]: 92.4 µM
TGI [13]: > 100 µM
TGI [14]: > 100 µM
TGI [15]: > 100 µM
TGI [16]: > 100 µM
TGI [57]: 80.4 µM
TGI [58]: > 100 µM
TGI [59]: 55 µM
TGI [21]: 58 µM
TGI [22]: 41.5 µM
TGI [23]: 76.3 µM
TGI [24]: 66 µM
TGI [25]: > 100 µM
TGI [26]: 65.3 µM
TGI [27]: > 100 µM
TGI [28]: > 100 µM
TGI [30]: 67.6 µM
TGI [31]: 35.9 µM
TGI [62]: > 100 µM
TGI [35]: 72.3 µM
TGI [36]: 86.1 µM
TGI [68]: > 100 µM
TGI [37]: 78.5 µM
TGI [38]: > 100 µM
TGI [39]: 62.4 µM
TGI [40]: > 100 µM
TGI [41]: > 100 µM
TGI [42]: > 100 µM
TGI [43]: 51.7 µM
TGI [44]: 35.2 µM
TGI [45]: 45.6 µM
TGI [46]: 53.4 µM
TGI [47]: 63.1 µM
TGI [48]: 47.9 µM
TGI [50]: > 100 µM
